According to patent US20180252736A1, “CB2 RECEPTOR INTERNALIZATION” (Arena Pharmaceuticals, Inc., priority 2015, published 2018):
Values joined by “and” are separate entries in the source; they are usually repeats but may differ in a detail not shown here. Identical values can stand only once.

How the values were obtained:
hCB2 [1] = target: T1, hCB2 (Homo sapiens, UniProt P34972); details: reported by Lilly; cited from earlier work
rat CB2 receptor [2] = target: T2, rat CB2 receptor (Rattus norvegicus, UniProt Q9QZN9); assay: β-arrestin recruitment assay (PathHunter CHO-K1); type: cell-based; design: host or cells: PathHunter CHO-K1; details: for β-arrestin efficacy compared to CP55,940, rat CB2: relative to CP55,940
T2 sequence (Q9QZN9 1-360): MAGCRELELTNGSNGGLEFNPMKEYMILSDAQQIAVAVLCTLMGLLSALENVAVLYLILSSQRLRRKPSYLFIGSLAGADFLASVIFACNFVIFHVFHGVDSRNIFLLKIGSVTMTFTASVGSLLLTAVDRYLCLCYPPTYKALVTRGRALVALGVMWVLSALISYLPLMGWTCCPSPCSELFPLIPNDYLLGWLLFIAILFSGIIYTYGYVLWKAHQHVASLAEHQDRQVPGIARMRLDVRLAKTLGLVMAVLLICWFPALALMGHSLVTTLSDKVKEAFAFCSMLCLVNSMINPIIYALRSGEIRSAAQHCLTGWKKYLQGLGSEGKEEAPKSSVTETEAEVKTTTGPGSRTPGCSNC

CB1 [3] = target: T3, CB1 (Homo sapiens, UniProt P21554); details: at 100,000 nM; reported by Lilly; cited from earlier work
T3 sequence (P21554 whole entry): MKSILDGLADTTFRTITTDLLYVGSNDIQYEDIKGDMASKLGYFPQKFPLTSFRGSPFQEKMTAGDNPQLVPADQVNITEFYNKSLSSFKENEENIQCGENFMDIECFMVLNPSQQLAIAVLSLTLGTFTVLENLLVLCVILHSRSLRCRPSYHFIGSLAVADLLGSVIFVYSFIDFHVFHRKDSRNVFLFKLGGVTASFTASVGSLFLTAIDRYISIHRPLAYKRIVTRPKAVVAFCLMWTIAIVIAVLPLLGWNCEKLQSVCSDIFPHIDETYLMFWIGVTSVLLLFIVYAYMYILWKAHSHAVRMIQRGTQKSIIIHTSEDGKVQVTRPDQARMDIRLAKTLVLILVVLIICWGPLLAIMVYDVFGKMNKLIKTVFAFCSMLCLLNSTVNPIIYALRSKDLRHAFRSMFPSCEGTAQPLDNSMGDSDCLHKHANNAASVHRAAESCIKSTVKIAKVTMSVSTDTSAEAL

hCB2 [4] = target: T1, hCB2; assay: β-arrestin recruitment assay (PathHunter CHO-K1); type: cell-based; design: host or cells: PathHunter CHO-K1; details: for β-arrestin efficacy compared to CP55,940, human CB2: relative to CP55,940
mouse CB2 receptor = target: T4, mouse CB2 receptor (Mus musculus, UniProt P47936); assay: β-arrestin recruitment assay (PathHunter CHO-K1); type: cell-based; details: for β-arrestin efficacy, mouse CB2: relative to reference agonist
T4 construct: host or cells: PathHunter CHO-K1
T4 sequence (P47936 whole entry): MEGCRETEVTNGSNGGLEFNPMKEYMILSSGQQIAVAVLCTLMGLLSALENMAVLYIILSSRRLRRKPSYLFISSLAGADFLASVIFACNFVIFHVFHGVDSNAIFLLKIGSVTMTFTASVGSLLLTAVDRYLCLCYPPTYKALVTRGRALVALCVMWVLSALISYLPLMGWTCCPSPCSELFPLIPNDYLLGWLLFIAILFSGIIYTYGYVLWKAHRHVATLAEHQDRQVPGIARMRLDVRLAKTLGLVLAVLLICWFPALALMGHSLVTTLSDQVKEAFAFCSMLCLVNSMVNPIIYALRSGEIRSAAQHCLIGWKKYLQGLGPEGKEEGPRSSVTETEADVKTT

mouse CB1 receptor = mouse CB1 receptor (Mus musculus, UniProt P47746); assay: β-arrestin recruitment assay (PathHunter CHO-K1); type: cell-based
Sequence of mouse CB1 receptor (P47746 whole entry): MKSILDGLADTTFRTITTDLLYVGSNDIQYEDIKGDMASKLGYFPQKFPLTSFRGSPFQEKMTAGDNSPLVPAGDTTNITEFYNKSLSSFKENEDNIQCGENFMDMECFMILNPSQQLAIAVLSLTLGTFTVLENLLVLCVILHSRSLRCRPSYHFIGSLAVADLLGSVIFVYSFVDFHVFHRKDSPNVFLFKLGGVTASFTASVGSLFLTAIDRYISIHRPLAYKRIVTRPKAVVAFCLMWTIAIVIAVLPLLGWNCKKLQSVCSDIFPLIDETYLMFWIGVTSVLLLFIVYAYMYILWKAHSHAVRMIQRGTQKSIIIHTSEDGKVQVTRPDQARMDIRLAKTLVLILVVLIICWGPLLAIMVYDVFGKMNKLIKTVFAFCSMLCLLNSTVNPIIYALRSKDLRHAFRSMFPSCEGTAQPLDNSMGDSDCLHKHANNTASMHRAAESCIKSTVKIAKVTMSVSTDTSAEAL

CB1 [5] = target: T3, CB1; assay: β-arrestin recruitment assay (PathHunter CHO-K1); type: cell-based
CB1 [6] = target: T3, CB1; details: concentrations less than 30 μM; reported by GSK; cited from earlier work
[7] = test system: MIA-induced osteoarthritis in male Sprague Dawley rats; assay: Osteoarthritis pain model (MIA); type: in vivo, rat; details: for effect of CB1 antagonist on in vivo efficacy: pain model
Excerpt: Injection of monosodium iodoacetate (MIA) into a joint (J Rheumatol 14:130-1, 1987) inhibits the activity of glyceraldehyde-3-phosphate dehydrogenase in chondrocytes, resulting in disruption of glycolysis and eventually in cell death. The progressive loss of chondrocytes results in histological and morphological changes of the articular cartilage, closely resembling those seen in osteoarthritis patients.
Osteoarthritis was induced in 200 g male Sprague Dawley rats. After brief anesthesia by isoflurane, rats received a single intra-articular injection of MIA (2 mg) (Catalog #19148, Sigma Aldrich, Saint Louis, Mo.) dissolved in 0.9% sterile saline in a 50 μL volume administered through the patella ligament into the joint space of the left knee with a 30 G needle. Following injection, animals were allowed to recover from anesthesia before being returned to the main housing vivarium.
Typically during disease progression, there is an inflammation period of 0-7 days post-intra-articular injection followed by progressive degeneration of the cartilage and subchondral bone from days 14-55. Efficacy studies with a compound described herein took place from day 14 onwards and were performed twice a week with at least three days of wash-out in between each assay. Three different assays can be used to measure pain. Tactile allodynia can be measured via von Frey assay, hind limb paw weight distribution can be monitored using an incapacitance tester (Columbus Instruments, Columbus, Ohio), and hind limb grip strength can be measured using a grip strength meter (Columbus Instruments, Columbus, Ohio). Briefly, the von Frey assay was performed using the standard up/down method with von Frey filaments. Hind paw weight distribution was determined by placing rats in a chamber so that each hind paw rested on a separate force plate of the incapacitance tester. The force exerted by each hind limb (measured in grams) was averaged over a three second period. Three measurements are taken for each rat, and the change in hind paw weight distribution was calculated. Peak hind limb grip force was conducted by recoding the maximum compressive force exerted on the hind limb mesh gauge set on the grip strength meter. During testing, each rat was restrained and the paw of the injected knee was allowed to grip the mesh. The animal was then pulled in an upward motion until their grip was broken. Each rat was tested three times, with the contralateral paw used as a control.
A baseline was established for animals prior to administration of compounds. The MIA-treated groups of rats were then dosed with either vehicle (PEG400, orally), test compound (at 3 mg/kg, 10 mg/kg, and 30 mg/kg, orally), or morphine (3 mg/kg, subcutaneously). The dosing volume was 500 μL. One hour after dosing, von Frey assay, hind limb weight distribution and/or hind limb grip analysis was performed to measure the efficacy of the test compounds.

hCB2 [8] = target: T1, hCB2; assay: CB2 receptor internalization assay (enzyme complementation); type: cell-based; details: for receptor internalization, human CB2 (words): relative to CP55,940
Method: (§1) Receptor internalization assays for the CB2 receptor were performed using the PathHunter® Total GPCR Internalization system from DiscoverRx (Fremont, Calif.). The assay was performed in CB2-receptor-expressing stable cell lines generated in the PathHunter® U2OS parental cell line.
(§2) Total GPCR internalization assays were performed per the manufacturer's instructions. Briefly, PathHunter® U2OS cells stably expressing the recombinant human or rat CB2 receptor were seeded into 96-well microtiter assay plates (Catalog #3610, Corning Inc., Corning, N.Y.) at a density of 20,000 cells per well in 100 μL growth medium and cultured in a humidified 37° C. incubator overnight. Growth medium was exchanged the following day for 100 μL serum-free medium (OptiMEM), and cells were incubated overnight in a humidified 37° C. incubator. On the day of the assay, test compounds dissolved in DMSO were serially diluted in DMSO and then further diluted in OptiMEM to achieve 11× concentrations in 5.5% DMSO. Aliquots (10 μL) of diluted test compounds were added to the assay plates, which were then incubated in a humidified 37° C. incubator for 3 hours. Lysis/detection reagents (55 μL total) were then added and the plates were incubated for an additional 1 hour at room temperature. Plates were then read on an appropriate plate reader (e.g., EnVision (Perkin Elmer, Waltham, Mass.) or PheraStar (BMG)). Dose-response curves were generated using a minimum of 8 different test concentrations and triplicate determinations were made at each test concentration. Assay performance was monitored by inclusion of a standard CB2 reference agonist such as CP55,940 and agonist internalization efficacies were reported relative to that of the reference agonist.

rat CB1 receptor = rat CB1 receptor (Rattus norvegicus, UniProt P20272); assay: β-arrestin recruitment assay (PathHunter CHO-K1); type: cell-based
Sequence of rat CB1 receptor (P20272 whole entry): as the sequence (P47746 whole entry) above, with D95E counted along it

hCB2 [9] = target: T1, hCB2; details: reported by Glenmark, cited from earlier work
rat CB2 receptor [10] = target: T2, rat CB2 receptor; assay: CB2 receptor internalization assay (enzyme complementation); type: cell-based; details: relative to CP55,940
Method: as §1, §2

[11] = test system: human CB2 receptor versus human CB1 receptor; assay: CB2 receptor selectivity (ratio of EC50 values, β-arrestin data); type: cell-based
Excerpt: Competition curves were fit to a nonlinear least squares curve fitting program to obtain EC50 values for the β-arrestin data. Selectivity for the CB2 receptor versus the CB1 receptor was obtained by dividing the […].

T1 sequence (P34972 whole entry): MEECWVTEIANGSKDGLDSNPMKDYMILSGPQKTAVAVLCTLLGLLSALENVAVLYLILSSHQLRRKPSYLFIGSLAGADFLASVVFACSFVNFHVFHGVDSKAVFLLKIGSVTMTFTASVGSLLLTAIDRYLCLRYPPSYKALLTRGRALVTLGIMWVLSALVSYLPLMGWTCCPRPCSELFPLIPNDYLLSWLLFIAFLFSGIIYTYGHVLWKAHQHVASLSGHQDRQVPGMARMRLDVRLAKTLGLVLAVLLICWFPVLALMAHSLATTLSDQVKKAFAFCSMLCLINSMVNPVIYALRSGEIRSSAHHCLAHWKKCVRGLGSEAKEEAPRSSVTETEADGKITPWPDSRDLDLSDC

## Cc1nc(N2CCN(C)CC2)c2nc(-c3ccccc3Cl)n(C3CCOCC3)c2n1 [LY2828360]
hCB2 [1]
  GTPγS35 stimulation in vitro efficacy, hCB2: 87% and 87 ± 2%
Rat CB2 receptor [2]; compared to CP55,940
  agonist activity in β-arrestin assay, rat CB2: absence of agonist activity
CB1 [3]
  GTPγS35 stimulation efficacy, hCB1: 15 ± 7% at 100,000 nM
hCB2 [4]
  β-arrestin efficacy compared to CP55,940, human CB2: 41%
Mouse CB2 receptor; antagonist activity, read-out: β-arrestin potency, mouse CB2 (* indicates antagonist activity)
  IC50: 56 nM
Mouse CB1 receptor; antagonist activity, read-out: β-arrestin potency, mouse CB1 (* indicates antagonist activity)
  IC50: 1000 nM

## O=C(NCC1CCOCC1)c1cnc(Nc2ccc(Cl)cc2Cl)nc1C(F)(F)F [GW842166X]
CB1 [5]
  EC50: > 10000 nM
CB1 [6]
  CB1 activity: absence of CB1 activity
Rat CB2 receptor [2]
  EC50: 427 nM
  β-arrestin efficacy compared to CP55,940, rat CB2: 97%
[7]; oral dosing
  in vivo efficacy over time in the osteoarthritis pain model: limited efficacy
[7]
  effect of CB1 antagonist on in vivo efficacy: blocked by CB1 antagonists
[7]; listed as GW842166
  effect of CB1 antagonist on in vivo efficacy: blocked by a CB1 antagonist
hCB2 [8]
  total granule intensity compared to CP55,940, human CB2 receptor internalization: 53%
  receptor internalization, human CB2 (words): weak receptor internalization
hCB2 [8]; listed as GW842166
  receptor internalization, human CB2 (words): weak CB2 receptor internalization
hCB2 [4]
  EC50: 840 nM
  β-arrestin efficacy compared to CP55,940, human CB2: 99%
Rat CB1 receptor
  EC50: > 10000 nM
Mouse CB2 receptor
  EC50: 235 nM
  β-arrestin efficacy, mouse CB2: 108%
Mouse CB1 receptor
  EC50: > 10000 nM

## CC(C)(C)NC(=O)c1nn(-c2ccc(F)cc2F)c2c1C1CCC2C1 (stereo not drawn) [GRC 10693]
CB1 [5]
  EC50: 384 nM
CB1 [5]; relative to reference agonist
  β-arrestin efficacy, human CB1: 57%
hCB2 [9]
  selectivity compared to the CB1 receptor using cAMP assays: greater than 4700 fold
hCB2 [9]; read-out: functional IC50 for the human CB2 receptor
  IC50: 2.1 nM
Rat CB2 receptor [2]
  EC50: 2 nM
  β-arrestin efficacy compared to CP55,940, rat CB2: 89%
hCB2 [8]
  receptor internalization, human CB2 (words): high efficacy
Rat CB2 receptor [10]
  receptor internalization, rat CB2: high efficacy
hCB2 [4]
  EC50: 1.2 nM
  β-arrestin efficacy compared to CP55,940, human CB2: 100%
Rat CB1 receptor
  EC50: 290 nM
Rat CB1 receptor; relative to reference agonist
  β-arrestin efficacy, rat CB1: 57%
Mouse CB2 receptor
  EC50: 0.8 nM
  β-arrestin efficacy, mouse CB2: 96%
Mouse CB1 receptor
  EC50: 750 nM
Mouse CB1 receptor; relative to reference agonist
  β-arrestin efficacy, mouse CB1: 75%
[11]
  selectivity for the human CB2 receptor versus the human CB1 receptor: 320 fold
